Activity calls are given as the source filed them.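 The calls were made as follows: active = fitted half-maximal concentration for changing background-corrected GFP signal at or below a set limit; inactive = the rest.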

Here are results for 75 compounds from PubChem BioAssay AID2742 (NMMLSC, 2010).

This assay can be described thus: modulators of MEP2-GFP levels in yeast, dose response, S. cerevisiae, flow cytometry GFP, MLPCN hits (AID 2742).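 Also: GFP tag reports level of MEP2 protein as a downstream target of TOR signalling.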 Particulars: S. cerevisiae MEP2-GFP strain, flow cytometry fluorescence, 3 h; at 33 µM (top of the series). A general note: Flow cytometry measures light scatter and fluorescence of single cells or particles in a stream.

Take `COc1ccc(OC)c(S(=O)(=O)ON2C(=O)c3ccccc3C2=O)c1`: the GFP fluorescence (kMESF), higher = increase is -8.29 kMESF (inactive).
The figure for `C[C@@H]1C[C@@H]([C@H](O)CC2CC(=O)NC(=O)C2)C(=O)[C@@H](C)C1` is 3.27 kMESF (inactive); for `O=c1oc2cc(Oc3c([N+](=O)[O-])cc(C(F)(F)F)cc3[N+](=O)[O-])ccc2c2c1CCCC2` it is 4.77 kMESF (inactive).
Next, `CC1=C(C)/C(=N\OS(=O)(=O)c2ccccc2)C=CC1=O`: 4.84 kMESF (inactive); `O=C(CSC1=NS(=O)(=O)c2ccccc21)Nc1ccccc1`: 2.66 kMESF (inactive).
Next, `O=C(Oc1oc(-c2ccco2)nc1C=Nc1ccccc1)c1ccoc1`: 4.11 kMESF (inactive).
Consider `Cc1cc2ccccn2c1C(=O)c1ccc([N+](=O)[O-])o1`, for which the GFP fluorescence (kMESF), higher = increase was -12.4 kMESF (inactive).
Next, `CCOC(=O)/C(=C\c1cn(C)c2ccccc12)[N+](=O)[O-]`: 6.34 kMESF (inactive); `CN(C)NC(=S)Nc1ccc(S(=O)(=O)N2CCCCC2)cc1`: 1.92 kMESF (inactive); `COc1cccc(/C=N/Nc2ncc(C(F)(F)F)cc2Cl)c1O`: 3.26 kMESF (inactive).
Next, `O=C(NOC(=O)c1ccccc1)c1ccccc1`: 5.42 kMESF (inactive); `C=CCN1C(=O)/C(=C/c2cccs2)C(=O)NC1=S`: 3.81 kMESF (inactive).
Next, `O=C(Nc1nc2ccc(F)cc2s1)c1ccccn1`: 3.71 kMESF (inactive); `O=C(O)c1ccc2c(c1)C(=O)/C(=C/c1ccccc1)C2=O`: 2.47 kMESF (inactive).
Regarding `Cc1cc(NC(c2ccc(Cl)cc2)c2ccc3cccnc3c2O)no1` (stereo not given), the GFP fluorescence (kMESF), higher = increase is 4.11 kMESF (inactive).
Next, `O=C1C2C3C=CC(CO)(O3)C2C(=O)N1c1ccccc1-c1ccccc1` (stereo not given): 5.17 kMESF (inactive); `CCOC(=O)c1cc(-c2ccc(/C=C3/C(=O)NC(=O)C(C#N)=C3C)o2)ccc1Cl`: 6.22 kMESF (inactive); `CCCCCn1c(=O)c(C(=O)Nc2nc3ccccc3[nH]2)c(O)c2ccccc21`: 1.97 kMESF (inactive).
The figure for `N/C(=N\OC(=O)c1ccccc1Cl)c1ccc(Cl)cc1` is 3.91 kMESF (inactive).
Next, `CCc1cc(C(=O)Nc2nc(-c3ccccn3)cs2)sc1C`: 6.18 kMESF (inactive).
Regarding `O=C(/C=C/c1ccccc1)c1cc(Br)ccc(=O)c1O`, the GFP fluorescence (kMESF), higher = increase was -11.3 kMESF (inactive).
The figure for `Cc1ccc(C(=O)/C=C/C(=O)c2ccc(C)cc2)cc1` is 3.81 kMESF (inactive); for `O=C1c2cccc3c([N+](=O)[O-])ccc(c23)C(=O)N1CCc1ccccn1` it is 5.48 kMESF (inactive); for `COc1ccc(/C=C/C(=O)NC(=S)NNC(=O)c2cnccn2)cc1` it is 3.67 kMESF (inactive).
Next, `COc1ccc(-c2cc3nc4n(c(=O)c3s2)CCC4)cc1`: 1.07 kMESF (inactive); `O=c1[nH]c(-c2ccccn2)nc(C(F)(F)F)c1Br`: 4.02 kMESF (inactive).
The figure for `Cc1ccc(/C=C2\SC(=S)N(CC3CCCO3)C2=O)o1` (stereo not given) is 4.83 kMESF (inactive); for `COc1ccccc1N=Nc1ccc(O)c2ncccc12` it is 5.16 kMESF (inactive); for `C#CCOCCOCCOCCNc1nc(N2CCN(C(=O)CCCCCCCCCCNC(=O)[C@H](CCCCN)n3cc(CCO)nn3)CC2)nc(N2CCN(C(=O)CCCCCCCCCCNC(=O)[C@H](CCCCN)n3cc(C[C@@H](C)CC)nn3)CC2)n1` it is 3.23 kMESF (inactive).
`O=C(NCc1ccc2c(c1)OCO2)c1nc(S(=O)(=O)Cc2ccccc2)ncc1Cl`: the GFP fluorescence (kMESF), higher = increase is 2.56 kMESF (inactive).
The figure for `CS(=O)(=O)c1sc(C#N)c2c1C(=O)CC(c1ccccc1)C2` (stereo not given) is 4.8 kMESF (inactive).
Next, `Clc1ccc(N=c2ssnc2Cl)cc1`: 4.8 kMESF (inactive).
For the compound `Cc1sc(/C=C2\C(=O)ON=C2c2ccccc2)cc1Br`, the GFP fluorescence (kMESF), higher = increase was 1.67 kMESF (inactive).
Next, `CCc1nc2ccccc2c(=O)n1NC(=O)c1c(O)c2cccc3c2n(c1=O)CCC3`: 1.72 kMESF (inactive).
On to `COc1cc(/C=C2/C(=O)ON=C2c2ccccc2)ccc1O`, for which the GFP fluorescence (kMESF), higher = increase was 3.68 kMESF (inactive).
The figure for `O=C(Cc1ccc(Cl)cc1)NNC(=S)NC(=O)c1cccs1` is 6.72 kMESF (inactive); for `O=C(/C=C/Sc1ncn[nH]1)c1ccc(Cl)cc1` it is 4.24 kMESF (inactive).
In the case of `COc1ccc(Cl)cc1C(Nc1cccnc1)c1ccc2cccnc2c1O` (stereo not given), the GFP fluorescence (kMESF), higher = increase was 5.91 kMESF (inactive).
Next, `Cc1ccc(NN2C(=O)C=C(c3ccc(Cl)cc3)C2=O)cc1`: 4.9 kMESF (inactive); `O=C1N(c2ccccc2C(F)(F)F)O[C@]1(c1ccccc1)C1CCCCC1`: 3.28 kMESF (inactive).
The figure for `CCCc1nnc(NC(=O)c2c(O)c3cccc4c3n(c2=O)CCC4)s1` is -1.47 kMESF (inactive).
As for `Cc1cccc(N2C(=O)C(Cl)=C(Nc3c(C)n(C)n(-c4ccccc4)c3=O)C2=O)c1C`, the GFP fluorescence (kMESF), higher = increase is 3.31 kMESF (inactive).
The figure for `Cc1ccccc1C(=O)NNC(=S)NC(=O)c1ccc(Cl)cc1Cl` is 6.21 kMESF (inactive).
With `COc1ccccc1C(=O)NNC(=S)NC(=O)c1cccs1`, the GFP fluorescence (kMESF), higher = increase is 4.73 kMESF (inactive).
Next, `Cc1cc(Br)c2c(c1)/C(=C/C(=O)c1cccs1)C(=O)N2`: 3.78 kMESF (inactive).
The figure for `N/C(Cc1ccc(Cl)c(Cl)c1)=N\OC(=O)c1cccs1` is 3.66 kMESF (inactive).
Next, `Cc1c(Cc2ccccc2)c(NCCN(C)C)n2c(nc3ccccc32)c1C#N`: 4.39 kMESF (inactive); `Cc1ccc(S(=O)(=O)c2ccc([N+](=O)[O-])cn2)cc1`: 5.31 kMESF (inactive).
`O=C(Nc1ccccc1)ON=C1CCCC1`: the GFP fluorescence (kMESF), higher = increase is 2.76 kMESF (inactive).
Next, `Cc1ccc2nc(/C(C#N)=C/c3ccc(O)c(O)c3)[nH]c2c1`: 4.49 kMESF (inactive); `O=C1ON=C(c2ccccc2)/C1=C/c1ccc(-c2ccccc2[N+](=O)[O-])o1`: 5.5 kMESF (inactive).
Next, `CCC(=O)Nc1ccc(NC(=O)c2cc3ccccc3o2)c(OC)c1`: 2.4 kMESF (inactive).
The figure for `Cc1ccc(C2=NN(S(C)(=O)=O)C(c3ccc4c(c3)OCO4)C2)cc1` (stereo not given) is 2.44 kMESF (inactive); for `COc1ccc(/C=C/C(=O)c2cc(Br)ccc(=O)c2O)cc1` it is -51.6 kMESF (inactive).
Regarding `O=[N+]([O-])c1cc(Cl)c2cccnc2c1O`, the GFP fluorescence (kMESF), higher = increase is 5.35 kMESF (inactive).
Take `O=C(Sc1cccc2cccnc12)c1ccccc1Br`: the GFP fluorescence (kMESF), higher = increase is 4.93 kMESF (inactive).
Next, `O=C1c2ccccc2C(=O)C2OC12` (stereo not given): 3.37 kMESF (inactive); `CC[C@H](C)/C=C(C)/C=C/C1=CC2=C(Cl)C(=O)[C@@](C)(OC(C)=O)C(=O)C2=CO1`: 0.91 kMESF (inactive); `O=C(Nc1ccc(Cl)cc1)ON=C1CCCC1`: 4.17 kMESF (inactive).
Next, `O=C(c1ccc(Cl)cc1)N1CCN(c2cccc3[nH]ccc23)CC1`: 3.33 kMESF (inactive).
In the case of `CC(C)(C)c1ccc(NC(=O)COC(=O)c2ccc([N+](=O)[O-])s2)cc1`, the GFP fluorescence (kMESF), higher = increase is 2.3 kMESF (inactive).
Next, `Cc1cc(C(=O)COC(=O)c2ccc[nH]c2=O)c(C)n1-c1ccccc1F`: 1.88 kMESF (inactive); `Cc1[nH]c(-c2ccccn2)nc(=S)c1Cl`: 4.24 kMESF (inactive); `COC(=O)CCC(=O)OC1(C)C(=O)C2=COC(c3ccc(OC)cc3)=CC2=C(Br)C1=O` (stereo not given): 0.26 kMESF (inactive).
The figure for `Cc1cccc2c1NC(=O)/C2=C\C(=O)c1cccs1` is 4.26 kMESF (inactive).
Next, `O=C(COc1ccccc1)N1CCN(c2ncnc3c2cnn3-c2ccccc2)CC1`: 1.97 kMESF (inactive); `N/C(Cc1ccc(Cl)cc1)=N\OC(=O)c1ccccc1`: 3.99 kMESF (inactive); `Nc1nc2ncc(CNc3ccc(C(=O)N[C@@H](CCC(=O)O)C(=O)O)cc3)nc2c(=O)[nH]1`: 1.95 kMESF (inactive).
For `Cn1ncc(S(=O)(=O)Cc2ccccc2)c(Cl)c1=O`, the GFP fluorescence (kMESF), higher = increase was 4.57 kMESF (inactive).
For `Cc1cc(S(=O)(=O)ON2C(=O)c3ccccc3C2=O)ccc1F`, the GFP fluorescence (kMESF), higher = increase is 4.9 kMESF (inactive).
The figure for `O=C(Oc1oc(-c2ccco2)nc1C=Nc1ccccc1)c1ccco1` is 4.57 kMESF (inactive); for `COc1cc(/C=C/c2ccc3c(Br)cc(Br)c(O)c3n2)ccc1O` it is 9.24 kMESF (inactive); for `Cc1ccc(NC(=O)c2cc(N3C(=O)C=CC3=O)ccc2Cl)cc1C` it is 5.17 kMESF (inactive).
`CCCc1ccc(OCC(=O)NNC(=S)NC(=O)c2ccco2)cc1`: the GFP fluorescence (kMESF), higher = increase is 9.05 kMESF (inactive).
Regarding `Cn1c(=O)c(C(=O)NNC(=O)c2ccc(Br)cc2)c(O)c2ccccc21`, the GFP fluorescence (kMESF), higher = increase was 3.4 kMESF (inactive).
